In article PMC7462607 (eLife, 2020):
“And” between values parts separate entries of the source, which are not always exact repeats. Equal entries are not always repeated. Where two headings read alike, the source gives them in different places.

Key:
[1] = tested on: A549 cells stably expressing 3xFLAG-CDK12 WT/G731E/G731R; experiment: Cell viability assay, A549 cells stably expressing wild-type or G731E/R mutant CDK12; assay type: cell-based; settings: Homo sapiens
Procedure: (§1) Seven hundred A549 cells or 1,000 HCT-116 cells in 50 µL of medium were plated per well in 384-well flat clear bottom white polystyrene TC-treated microplates (Corning, Corning, USA). After overnight attachment, cells were dosed with a serial dilution of HQ461 with a D300e digital dispenser (Tecan, Männedorf, Switzerland). Cell survival was measured 72 hr later using CellTiter-Glo luminescent cell viability assay kit (Promega, Madison, USA) following vendor instructions. Luminescence was recorded by EnVison multimode plate reader (PerkinElmer, Waltham, USA). IC50 was determined with GraphPad Prism using baseline correction (by normalizing to DMSO control), the asymmetric (five parameter) equation, and least squares fit.
An ORF encoding CDK12 isoform 2 (NM_015083.3) was PCR amplified from A549 cDNA and cloned into a pCDNA3.1-N-3xFLAG vector which was derived from the pCDNA3.1 vector. G731E and G731R mutations in CDK12 were introduced by overlap extension PCR. After sequencing verification, wild-type and mutant 3xFLAG-CDK12 sequences were subcloned into lentiCas9-Blast (Addgene 52962) by replacing the Cas9 ORF with 3xFLAG-CDK12. The resulting lenti-EF1α−3xFLAG-CDK12-P2A-BSD WT/GE/GR constructs were packaged into lentiviral vectors to transduce A549 cells. Stable cell lines were obtained by selection with 20 µg/ml of blasticidin.

[2] = tested on: CDK12 G731E or G731R knock-in A549 cells; experiment: Cell viability assay, CDK12 G731E or G731R knock-in A549 cells; assay type: cell-based; settings: Homo sapiens, four knock-in clones
Procedure: as §1
An sgRNA targeting CDK12 (5’-[…]-3’) was cloned into the pSpCas9(BB)−2A-eGFP (PX458) vector (Addgene 48138). For CDK12 G731E/R knock-in, 1 million A549 cells were nucleofected (using 4D-Nucleofector, Lonza, Basel, Switzerland) with PX458-sgCDK12 and single-stranded oligodeoxynucleotides (G731E: 5’-ttatatacttggccataggttccttctccaataatTTCaataatgtcaaacttgtccacacagcgtttcccccagtc-3’; G731R: 5’-ttatatacttggccataggttccttctccaataatGCGaataatgtcaaacttgtccacacagcgtttcccccagtc-3’). Afterwards, cells were exposed to 5 µM 0461 for 2 weeks to select for cells with CDK12 G731E/R knock-in. […]

A549 cells = experiment: Cell viability assay (CellTiter-Glo), A549; assay type: cell-based, Homo sapiens; settings: for CellTiter-Glo (ATP): A549, raw signal, Rep 1-3
Procedure: as §1

[3] = molecular target: T1, FLAG-Avi-DDB1 and His-CDK12KD G731R/His-CCNKΔC (Homo sapiens, UniProt Q9NYV4, G731R); experiment: AlphaScreen assay, G731R; assay type: binding; settings: for AlphaScreen: G731R, raw signal
T1 construct: Human CDK12KD (residues 715–1052); made in house; host or cells: Sf9 or High Five (CDK12KD/CCNKΔC, co-infected with yeast CAK1); 293F with BirA (FLAG-Avi-DDB1)
Procedure: Biotinylated FLAG-Avi-DDB1 (3 µM) and 6xHis-CDK12KD/6xHis-CCNKΔC (WT or G731E/R mutants) (3 µM) were mixed in an assay buffer (50 mM HEPES, pH7.5, 300 mM NaCl, 0.5 mM TCEP, 0.1% NP-40, 0.1% BSA) and a serial dilution of HQ461.The protein-compound mix was transferred to 384-well plates (Corning, Corning, USA); 15 μL per well. After a 1 hr room temperature incubation, 10 µL of nickel chelate (Ni-NTA) acceptor beads (PerkinElmer, Waltham, USA, Waltham, USA, 6760619C) (1:100 diluted with assay buffer) was added per well. After incubation in the dark for 1 hr at room temperature, 10 μL of streptavidin donor beads (PerkinElmer, Waltham, USA, 6760619C) (1:100 diluted in assay buffer) was added per well. After another 1 hr incubation, AlphaScreen signal was measured on the EnVision multimode plate reader (PerkinElmer, Waltham, USA). For THZ531 competition, FLAG-Avi-DDB1, 6xHis-CDK12KD/6xHis-CCNKΔC mix was preincubated with 5 μM of THZ531 for 30 min on ice followed by the procedures described above.

T1 sequence (Q9NYV4 715-1052 G731R limits assumed): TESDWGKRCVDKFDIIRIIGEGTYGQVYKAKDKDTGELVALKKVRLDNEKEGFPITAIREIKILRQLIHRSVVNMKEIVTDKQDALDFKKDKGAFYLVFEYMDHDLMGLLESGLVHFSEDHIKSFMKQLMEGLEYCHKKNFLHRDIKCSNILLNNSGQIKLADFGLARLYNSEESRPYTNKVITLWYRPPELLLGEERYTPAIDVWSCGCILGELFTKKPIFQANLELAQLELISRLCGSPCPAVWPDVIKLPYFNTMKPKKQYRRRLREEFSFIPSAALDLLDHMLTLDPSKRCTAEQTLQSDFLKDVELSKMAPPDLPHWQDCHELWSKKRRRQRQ
T1 sequence (O75909 11-267 partner limits assumed): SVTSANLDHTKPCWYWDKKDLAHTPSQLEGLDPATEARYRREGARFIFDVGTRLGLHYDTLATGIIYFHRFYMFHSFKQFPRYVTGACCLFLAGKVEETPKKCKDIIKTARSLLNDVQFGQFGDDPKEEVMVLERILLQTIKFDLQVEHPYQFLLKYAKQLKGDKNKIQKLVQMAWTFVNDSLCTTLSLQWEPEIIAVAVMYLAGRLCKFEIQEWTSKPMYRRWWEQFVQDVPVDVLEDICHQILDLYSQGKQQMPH

SMILES: Cc1cccc(Nc2nc(CC(=O)Nc3ncc(C)s3)cs2)n1 [HQ461, 2-(2-((6-methylpyridin-2-yl)amino)thiazol-4-yl)-N-(5-methylthiazol-2-yl)acetamide]
- IC50 ([1]; CDK12 G731E, read-out: IC50 on the viability of A549 cells stably expressing G731E mutant CDK12): 16.9 µM
- IC50 ([1]; CDK12 G731R, read-out: IC50 on the viability of A549 cells stably expressing G731R mutant CDK12): 22.9 µM
- IC50 ([1]; read-out: IC50 on the viability of A549 cells stably expressing wild-type CDK12): 1.3 µM
- IC50 [2]: 25.2 to 36.5 µM
- CellTiter-Glo (ATP) (A549 cells; HQ461 1.6e-6 M): 1.74E+06 and 1.39E+06 and 1.50E+06
- CellTiter-Glo (ATP) (A549 cells; HQ461 3.12e-6 M): 360450 and 439670 and 341920
- CellTiter-Glo (ATP) (A549 cells; HQ461 6.31e-6 M): 173530 and 234990 and 251210
- CellTiter-Glo (ATP) (A549 cells; HQ461 1.25e-5 M): 146290 and 177880 and 172140
- CellTiter-Glo (ATP) (A549 cells; HQ461 2.51e-5 M): 65570 and 94080 and 92090
- CellTiter-Glo (ATP) (A549 cells; HQ461 2.00E-07 M): 4.81E+06 and 4.79E+06 and 4.78E+06
- CellTiter-Glo (ATP) (A549 cells; HQ461 3.96E-07 M): 3.92E+06 and 3.86E+06 and 3.80E+06
- CellTiter-Glo (ATP) (A549 cells; HQ461 4.80E-08 M): 4.68E+06 and 4.34E+06 and 4.06E+06
- CellTiter-Glo (ATP) (A549 cells; HQ461 7.99E-07 M): 3.98E+06 and 3.60E+06 and 3.16E+06
- CellTiter-Glo (ATP) (A549 cells; HQ461 9.99E-08 M): 3.91E+06 and 3.89E+06 and 3.96E+06
- IC50 (A549 cells; Homo sapiens, A549, 72 hr, CellTiter-Glo): 1.3 µM
- AlphaScreen ([3]; HQ461 2.22e-6 M): 1045 and 1023 and 975
- AlphaScreen ([3]; HQ461 6.67e-6 M): 1107 and 1087 and 1018
- AlphaScreen ([3]; HQ461 2e-5 M): 1057 and 1369 and 1206
- AlphaScreen ([3]; HQ461 2.47E-07 M): 1123 and 959 and 996
- AlphaScreen ([3]; HQ461 2.74E-08 M): 1124 and 1117 and 796
- AlphaScreen ([3]; HQ461 7.41E-07 M): 1008 and 1006 and 1085
- AlphaScreen ([3]; HQ461 8.23E-08 M): 1162 and 1262 and 828
- complex formation with DDB1, G731R mutant ([3]; even with 20 µM of HQ461): did not form a complex with DDB1
